Experimental data: patent publication US10131707B2, “Treatment of sepsis and septic shock” (THE GENERAL HOSPITAL CORPORATION, priority 2014, dated 2018)
Entries after “also recorded” stand apart in the source; their conditions may differ. Like-named read-outs stand apart in the source and are kept apart here.

How the values were obtained:
[1] = system: mouse model of CLP-induced septic shock; test: Survival in CLP-induced sepsis model, inhibitors given intraperitoneally; assay type: in vivo, male C57BL/6J mice; details: for Survival (in words): i.p. 1 h after CLP, SAHA 50 mg/kg, Cl-amidine 80 mg/kg, up to 10 days, compared with DMSO vehicle
Protocol: Three experiments were carried out. In experiment I, HL-60 neutrophilic cells grown on a coverslip were treated with LPS (100 ng/ml) in the presence or absence of SAHA (5 […]]) for 3 h, and subjected to immuno-staining with anti-Cit H3 antibody to assess effect of SAHA on Cit H3 production under a fluorescence microscope. The ratio of Cit H3 positive cells was calculated as mean±SD (n=3). In experiment II, male C57BL/6J mice were subjected to CLP, and 1 hour later randomly divided into three groups for intraperitoneal injection as follows: (1) dimethyl sulfoxide (DMSO), (2) SAHA (50 mg/kg) in DMSO, and ([…]). In a separate experiment III, the male C57BL/6J mice were divided into control and treatment groups, and subjected to CLP. One hour later, immunoglobulin (IgG) and Cit H3 antibody (20 mg/kg iv; n=5/group) were injected into the control and treatment groups, respectively. All survival was monitored for 5-10 days.
Animals. Male C57B1/6J mice (6-8 weeks) weighing 25-30 g were purchased from Jackson Labs (Bar Harbor, Me.). All animals were housed in plastic cages and had access to chow and water throughout the experiment. They were kept at room temperature (24±2° C.) and exposed to alternative cycles of 12 h light and darkness. During the experiments the animals were monitored up to 10 days, and survival rate was compared between the experimental and control groups.
CLP-induced sepsis model. The CLP murine model,^15 modified as described previously, was used to induce fecal peritonitis.^16 In brief, peritoneal cavity was opened under inhaled isoflurane anesthesia. […]
Administration of inhibitors and experimental design. […] Mortality was recorded for up to 10 days post procedure.
Statistical analysis. Statistical differences were determined by Student t tests and ANOVA for two group and multiple group comparisons respectively (SPSS™ statistical software package, Chicago, Ill.). Kaplan-Meier survival curves were analyzed by using the MedCalc™ Statistical Software (Mariakerke, Belgium) for the in vivo studies. […]

[2] = system: collagen-induced arthritis; details: murine; cited from earlier work
Cit H3 = test: Production of Cit H3 after inhibition of PAD activity (data not shown)
HL-60 neutrophilic cells = test: LPS-induced Cit H3 production and NETs formation in HL-60 cells, immunostaining with anti-Cit H3 antibody; assay type: cell-based; details: LPS 100 ng/ml, 3 h
Protocol: Three experiments were carried out. In experiment I, HL-60 neutrophilic cells grown on a coverslip were treated with LPS (100 ng/ml) in the presence or absence of SAHA (5 […]]) for 3 h, and subjected to immuno-staining with anti-Cit H3 antibody to assess effect of SAHA on Cit H3 production under a fluorescence microscope. The ratio of Cit H3 positive cells was calculated as mean±SD (n=3). In experiment II, male C57BL/6J mice were subjected to CLP, and 1 hour later randomly divided into three groups for intraperitoneal injection as follows: (1) dimethyl sulfoxide (DMSO), (2) SAHA (50 mg/kg) in DMSO, and (3) Cl-amidine ([…]) in DMSO (n=10/group). In a separate experiment III, the male C57BL/6J mice were divided into control and treatment groups, and subjected to CLP. One hour later, immunoglobulin (IgG) and Cit H3 antibody (20 mg/kg iv; n=5/group) were injected into the control and treatment groups, respectively. All survival was monitored for 5-10 days.
Cell culture and treatment. HL-60 cells obtained from American Type Culture Collection (ATCC) were maintained in Iscove's modified DMEM medium (Invitrogen Life Technologies, Carlsbad, Calif.) supplemented with 20% fetal bovine serum (FBS). […] The ratio of Cit H3 positive stained cells to all cells was counted and calculated as mean±SD from three individual experiments.

[3] = system: mouse model of CLP-induced septic shock; details: literature reference 10; cited from earlier work
LPS-induced shock = details: rodent; cited from earlier work

| Compound | Survival ([1]; 80 mg/kg i.p. 1 h after CLP, monitored 10 days, n=10, DMSO vehicle 0%) [%] | Survival (in words) [1] | Severity of collagen-induced arthritis [2] | Production of Cit H3 (Cit H3) | LPS-induced Cit H3 production (ratio of Cit H3 positive cells to all cells) (HL-60 neutrophilic cells; ATRA-differentiated HL-60 cells, with or without SAHA, n=3, P<0.05) | NETs formation after LPS insult (HL-60 neutrophilic cells; HL-60 neutrophilic cells) | Survival [3] | Survival (LPS-induced shock) |
| --- | --- | --- | --- | --- | --- | --- | --- | --- |
| NC(=O)[C@H](CCCN=C(N)CCl)NC(=O)c1ccccc1 [Cl-amidine] | 42.5 | notably improved long term survival; also recorded: significantly improved survival | reduce the severity | reduce the production of Cit H3 |  |  |  |  |
| O=C(CCCCCCC(=O)Nc1ccccc1)NO [SAHA, suberoylanilide hydroxamic acid] |  | notably improved long term survival |  |  | inhibited H3 citrullination significantly; also recorded: suppresses LPS-induced Cit H3 production | significantly inhibited | improves survival | significantly improves survival |
